The values below come from US20260008758A1, “LINEAR DIPEPTIDYL PEPTIDASE 1 INHIBITORS AND USES THEREOF” (Insmed Incorporated, priority 2024, published 2026).

Usually IC50 stands for the concentration needed to halve the response being measured.

One assay concerns the target human DPP1 enzyme (Homo sapiens (Human), UniProt P53634). As to the kind of experiment: Human DPP1 enzyme IC50 assay. The format is biochemical. As to conditions: recombinant human DPP1, H-Gly-Arg-AMC substrate 400 μM. In a few lines:
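Fluorogenic readout (350/450 nm, every 5 min over 90 min, 37°C) of H-Gly-Arg-AMC cleavage at 400 μM final substrate. Compounds met activated DPP1 first for a 10-min 37°C pre-incubation in MES buffer pH 6.0 with DTT, 1% DMSO final. Four-parameter sigmoidal fit gave IC50.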

For another assay, the target named is DPP1 in HL-60 cells (Homo sapiens (Human), UniProt P53634). As to the kind of experiment: DPP1 Cell IC50 assay. The class given is cell-based. As to conditions: H-Gly-Phe-AFC substrate, 60 min pre-incubation. The procedure, abridged: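 HL-60 cells (5×10^5 live cells/mL in PBS) were pre-incubated with compound in 0.5% DMSO for 60 min at 37 °C, 5% CO2, with shaking, then given 500 μM H-Gly-Phe-AFC solution for 30 min. Fluorescence was read at 400/505 nm. % inhibition was taken against vehicle wells, and IC50 came from a four-parameter logistic fit.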

Where only a bound is given, the exact number is not on record here.

Chain of human DPP1 enzyme (P53634 25-134): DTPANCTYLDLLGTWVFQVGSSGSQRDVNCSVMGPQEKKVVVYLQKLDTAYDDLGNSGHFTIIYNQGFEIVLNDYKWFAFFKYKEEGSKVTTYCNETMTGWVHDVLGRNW
Chain of human DPP1 enzyme (P53634 231-394): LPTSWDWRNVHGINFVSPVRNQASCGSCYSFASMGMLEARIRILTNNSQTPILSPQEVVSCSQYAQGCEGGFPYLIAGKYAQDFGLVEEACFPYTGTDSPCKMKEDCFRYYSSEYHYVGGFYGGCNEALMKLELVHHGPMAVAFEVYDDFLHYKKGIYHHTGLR
Chain of human DPP1 enzyme (P53634 395-463): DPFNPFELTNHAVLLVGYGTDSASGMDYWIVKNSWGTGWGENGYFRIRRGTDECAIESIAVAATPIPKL
Chain of DPP1 in HL-60 cells (P53634 25-134): as the sequence (P53634 25-134) above
Chain of DPP1 in HL-60 cells (P53634 231-394): as the sequence (P53634 231-394) above
Chain of DPP1 in HL-60 cells (P53634 395-463): as the sequence (P53634 395-463) above

Regarding `COCCN(C)CCn1c(=O)oc2ccc(-c3ccc(C[C@@H](C#N)NC(=O)[C@](C)(N)C4CCCC4)cc3)cc21` [Compound 258B, (2R)-2-amino-N-[(1S)-1-cyano-2-[4-(3-{2-[(2-methoxyethyl)(methyl)amino]ethyl}-2-oxo-1,3-benzoxazol-5-yl)phenyl]ethyl]-2-cyclopentylpropanamide], the IC50 at human DPP1 enzyme was not above 5 nM; on DPP1 in HL-60 cells, 1 to 2.5 nM.

Take `CCN1C(=O)Cc2ccc(-c3ccc(C[C@@H](C#N)NC(=O)[C@@](C)(N)C4CCCC4)cc3)cc21` [Compound 259A, (2S)-2-amino-N-[(1S)-1-cyano-2-[4-(1-ethyl-2-oxo-3H-indol-6-yl)phenyl]ethyl]-2-cyclopentylpropanamide]: the IC50 is not above 5 nM at human DPP1 enzyme and 1 to 2.5 nM against DPP1 in HL-60 cells.

Consider `CCN1C(=O)Cc2ccc(-c3ccc(C[C@@H](C#N)NC(=O)[C@@](C)(N)C4CCCC4)c(F)c3)cc21` [Compound 264A, (2S)-2-amino-N-[(1S)-1-cyano-2-[4-(1-ethyl-2-oxo-3H-indol-6-yl)-2-fluorophenyl]ethyl]-2-cyclopentylpropanamide], for which the values for the IC50 at human DPP1 enzyme and at DPP1 in HL-60 cells were not below 15 nM and not below 2.5 nM, respectively.

As to `CCN1C(=O)Cc2ccc(-c3ccc(C[C@@H](C#N)NC(=O)[C@](C)(N)C4CCCC4)c(F)c3)cc21` [Compound 264B, (2R)-2-amino-N-[(1S)-1-cyano-2-[4-(1-ethyl-2-oxo-3H-indol-6-yl)-2-fluorophenyl]ethyl]-2-cyclopentylpropanamide], the IC50 on human DPP1 enzyme is not above 5 nM; against DPP1 in HL-60 cells, 1 to 2.5 nM.

Turning to `CCCCOCCn1c(=O)oc2ccc(-c3ccc(C[C@@H](C#N)NC(=O)C(C)(N)C4CCC4)c(F)c3)cc21` (stereo partly drawn) [Compound 267, 2-amino-N-[(1S)-2-{4-[3-(2-butoxyethyl)-2-oxo-1,3-benzoxazol-5-yl]-2-fluorophenyl}-1-cyanoethyl]-2-cyclobutylpropanamide], the IC50 is not above 5 nM on human DPP1 enzyme and not below 2.5 nM at DPP1 in HL-60 cells.

With `CN(C)CCn1c(=O)oc2ccc(-c3ccc(C[C@@H](C#N)NC(=O)C(C)(N)C4CCC4)c(F)c3)cc21` (stereo partly drawn) [Compound 268, 2-amino-N-[(1S)-1-cyano-2-(4-{3-[2-(dimethylamino)ethyl]-2-oxo-1,3-benzoxazol-5-yl}-2-fluorophenyl)ethyl]-2-cyclobutylpropanamide], the IC50 on human DPP1 enzyme is not above 5 nM; against DPP1 in HL-60 cells it was 1 to 2.5 nM.

For the compound `CN1CCC2(CCc3ccc(-c4ccc(C[C@@H](C#N)NC(=O)C(C)(N)C5CCC5)c(F)c4)cc32)CC1` (stereo partly drawn) [Compound 269, 2-amino-N—((S)-1-cyano-2-(2-fluoro-4-(1′-methyl-2,3-dihydrospiro[indene-1,4′-piperidin]-6-yl)phenyl)ethyl)-2-cyclobutylpropanamide], the IC50 on human DPP1 enzyme was not above 5 nM; against DPP1 in HL-60 cells it was not below 2.5 nM.

For the compound `COCCN(C)CCn1c(=O)oc2ccc(-c3ccc(C[C@@H](C#N)NC(=O)[C@@](C)(N)C4CCC4)c(F)c3)cc21` [Compound 270A, (2S)-2-amino-N-[(1S)-1-cyano-2-[2-fluoro-4-(3-{2-[(2-methoxyethyl)(methyl)amino]ethyl}-2-oxo-1,3-benzoxazol-5-yl)phenyl]ethyl]-2-cyclobutylpropanamide], the IC50 was not below 15 nM at human DPP1 enzyme and not below 2.5 nM at DPP1 in HL-60 cells.

On to `COCCN(C)CCn1c(=O)oc2ccc(-c3ccc(C[C@@H](C#N)NC(=O)[C@](C)(N)C4CCC4)c(F)c3)cc21` [Compound 270B, (2R)-2-amino-N-[(1S)-1-cyano-2-[2-fluoro-4-(3-{2-[(2-methoxyethyl)(methyl)amino]ethyl}-2-oxo-1,3-benzoxazol-5-yl)phenyl]ethyl]-2-cyclobutylpropanamide], for which the IC50 was not above 5 nM on human DPP1 enzyme and 1 to 2.5 nM on DPP1 in HL-60 cells.

Regarding `Cc1cn2cc(-c3ccc(C[C@@H](C#N)NC(=O)[C@@](C)(N)C4CCC4)c(F)c3)cc2c(C)n1` [Compound 272B, (S)-2-amino-N—((S)-1-cyano-2-(4-(1,3-dimethylpyrrolo[1,2-a]pyrazin-7-yl)-2-fluorophenyl)ethyl)-2-cyclobutylpropanamide], the IC50 at human DPP1 enzyme fell in the range of 5 to 15 nM; at DPP1 in HL-60 cells, 1 to 2.5 nM.

As to `Cn1c(=O)oc2ccc(-c3ccc(C[C@@H](C#N)NC(=O)C4(N)CCCC45CC5)c(F)c3)cc21` (stereo partly drawn) [Compound 273B, (4R)-4-amino-N-[(1S)-1-cyano-2-[2-fluoro-4-(3-methyl-2-oxo-1,3-benzoxazol-5-yl)phenyl]ethyl]spiro[2.4]heptane-4-carboxamide], the IC50 at human DPP1 enzyme is not above 5 nM; at DPP1 in HL-60 cells, not above 1 nM.

In the case of `CN(C)C[C@H](O)C(=O)N[C@H](C#N)Cc1ccc(-c2ccc3c(n2)CCCN3)cc1F` [Compound 276, (2S)—N-[(1S)-1-cyano-2-[2-fluoro-4-(5,6,7,8-tetrahydro-1,5-naphthyridin-2-yl)phenyl]ethyl]-3-(dimethylamino)-2-hydroxypropanamide], the IC50 at human DPP1 enzyme was not below 15 nM; against DPP1 in HL-60 cells it was not below 2.5 nM.

In the case of `CN(C)C[C@H](O)C(=O)N[C@H](C#N)Cc1cc2c(cc1F)-c1ccc(C#N)cc1CO2` [Compound 277A, (2S)—N-[(1S)-1-cyano-2-{8-cyano-2-fluoro-6H-benzo[c]chromen-3-yl}ethyl]-3-(dimethylamino)-2-hydroxypropanamide], the IC50 on human DPP1 enzyme was not below 15 nM; at DPP1 in HL-60 cells, not below 2.5 nM.

`CN(C)C[C@H](F)C(=O)N[C@H](C#N)Cc1ccc(-c2ccc3oc(=O)n(C)c3c2)cc1F` [Compound 278, (2S)—N-[(1S)-1-cyano-2-[2-fluoro-4-(3-methyl-2-oxo-1,3-benzoxazol-5-yl)phenyl]ethyl]-3-(dimethylamino)-2-fluoropropanamide]: the IC50 is not below 15 nM at human DPP1 enzyme and not below 2.5 nM against DPP1 in HL-60 cells.

Turning to `CN(C)C[C@H](O)C(=O)N[C@H](C#N)Cc1ccc(-c2ccc3c(c2)C(C2CCN(C4COC4)CC2)OC3)cc1` (stereo partly drawn) [Compound 281, (2S)—N-[(1S)-1-cyano-2-(4-{3-[1-(oxetan-3-yl)piperidin-4-yl]-1,3-dihydro-2-benzofuran-5-yl}phenyl)ethyl]-3-(dimethylamino)-2-hydroxypropanamide], the IC50 is not below 15 nM at human DPP1 enzyme and not below 2.5 nM at DPP1 in HL-60 cells.

As to `CN(C)C[C@H](O)C(=O)N[C@H](C#N)Cc1ccc(-c2ccc3cnn(C4CCN(C5COC5)CC4)c3c2)cc1` [Compound 282, (2S)—N-[(1S)-1-cyano-2-(4-{1-[1-(oxetan-3-yl)piperidin-4-yl]indazol-6-yl}phenyl)ethyl]-3-(dimethylamino)-2-hydroxypropanamide], the results for the half-maximal inhibitory concentration (IC50) on human DPP1 enzyme and against DPP1 in HL-60 cells were not below 15 nM and not below 2.5 nM, respectively.

With `CN(C)C[C@H](O)C(=O)N[C@H](C#N)Cc1ccc(-c2ccc3c(c2)C2(CCN(C4COC4)CC2)OC3)cc1F` [Compound 283, (2S)—N-[(1S)-1-cyano-2-{2-fluoro-4-[1′-(oxetan-3-yl)-3H-spiro[2-benzofuran-1,4′-piperidin]-6-yl]phenyl}ethyl]-3-(dimethylamino)-2-hydroxypropanamide], the IC50 is 5 to 15 nM on human DPP1 enzyme and not below 2.5 nM against DPP1 in HL-60 cells.

Turning to `CO[C@@H](CN(C)C)C(=O)N[C@H](C#N)Cc1ccc(-c2ccc3c(c2)C2(CCN(C4COC4)CC2)OC3)cc1F` [Compound 284, (2S)—N-[(1S)-1-cyano-2-{2-fluoro-4-[1′-(oxetan-3-yl)-3H-spiro[2-benzofuran-1,4′-piperidin]-6-yl]phenyl}ethyl]-3-(dimethylamino)-2-methoxypropanamide], the IC50 at human DPP1 enzyme is 5 to 15 nM; against DPP1 in HL-60 cells, not below 2.5 nM.

Take `CN(C)C[C@H](O)C(=O)N[C@H](C#N)Cc1ccc(-c2ccc3cnn(C4CCN(C)CC4)c3c2)cc1F` [Compound 285, (S)—N—((S)-1-cyano-2-(2-fluoro-4-(1-(1-methylpiperidin-4-yl)-1H-indazol-6-yl)phenyl)ethyl)-3-(dimethylamino)-2-hydroxypropanamide]: the IC50 on human DPP1 enzyme was 5 to 15 nM; against DPP1 in HL-60 cells, not below 2.5 nM.

Regarding `CO[C@@H](CN(C)C)C(=O)N[C@H](C#N)Cc1ccc(-c2ccc3cnn(C4CCN(C)CC4)c3c2)cc1F` [Compound 286, (S)—N—((S)-1-cyano-2-(2-fluoro-4-(1-(1-methylpiperidin-4-yl)-1H-indazol-6-yl)phenyl)ethyl)-3-(dimethylamino)-2-methoxypropanamide], the IC50 on human DPP1 enzyme was 5 to 15 nM; against DPP1 in HL-60 cells, not below 2.5 nM.

For the compound `CN(C)C[C@H](O)C(=O)N[C@H](C#N)Cc1ccc(-c2ccc3cnn(C4CCN(C5COC5)CC4)c3c2)cc1F` [Compound 287, (2S)—N-[(1S)-1-cyano-2-(2-fluoro-4-{1-[1-(oxetan-3-yl)piperidin-4-yl]indazol-6-yl}phenyl)ethyl]-3-(dimethylamino)-2-hydroxypropanamide], the IC50 at human DPP1 enzyme was 5 to 15 nM; at DPP1 in HL-60 cells, not below 2.5 nM.

`CO[C@@H](CN(C)C)C(=O)N[C@H](C#N)Cc1ccc(-c2ccc3cnn(C4CCN(C5COC5)CC4)c3c2)cc1F` [Compound 288, (2S)—N-[(1S)-1-cyano-2-(2-fluoro-4-{1-[1-(oxetan-3-yl)piperidin-4-yl]indazol-6-yl}phenyl)ethyl]-3-(dimethylamino)-2-methoxypropanamide]: the IC50 on human DPP1 enzyme was 5 to 15 nM; against DPP1 in HL-60 cells, 1 to 2.5 nM.
